US20090325874A1, “Inhibition of inositol 1,4,5-triphosphate receptor calcium channel/cytochrome c interactions and uses thereof” (priority 2008, published 2009)

How the values were obtained:
[1] = system: caspase-3 activation in Jurkat cells co-cultured with SW620 cells; assay: Caspase-3 like (DEVDase) activity in Jurkat cells co-cultured with SW620 cells; type: cell-based, human; conditions: for Jurkat cell (lymphocyte) apoptosis induced by co-culture with SW620 cells: summary statement, co-culture with Fas ligand-expressing SW620 colon cancer cells; for caspase-3 activation in Jurkat cells: 24 h co-culture with SW620
Protocol: (§1) Jurkat T-lymphoma (clone E6-1) and SW620 colon adenocarcinoma cells were purchased and cultured according to the guidelines of American Type Culture Collection (ATCC, Manassas, Va.). SW620 cells grow as adherent monolayers, whereas Jurkat cells grow in suspension. Jurkat cells were co-cultured with SW620 cells by exchanging the culture medium of SW620 cells (80 percent confluent in a 10 cm dish) with 10 ml Jurkat medium containing 1×10^6 Jurkat cells. Co-cultures were incubated for 24 h, after which cell death or caspase activity was determined in Jurkat cells. Pre-loading 1,2-bis(o-aminophenoxy)ethane-N,N,N′,N′-tetraacetic acid (BAPTA) or B-IP3RCYT into Jurkat cells was performed for 30 min at room temperature. Free BAPTA-AM or B-IP3RCYT was removed by media exchange prior to addition to SW620 cells. XestC was similarly pre-incubated with Jurkat cells prior to co-culturing, and remained in the culture medium for the duration of the co-culture experiment.
Caspase activity and cell death were determined specifically in Jurkat cells by removing the medium containing the Jurkat cells into a fresh tube. An additional rinse with culture medium was used to fully recover the Jurkat cells. Adherent SW620 cells remained attached to the culture plate after this rinse as determined by light microscopy. Jurkat cells were pelleted by centrifugation at 1000 g and cell death was determined by propidium iodide staining as described (12). Fluorometric determination of DEVDase (caspase-3 like) activity was performed on lysates prepared from Jurkat cells as described (12, 15).

[2] = system: Jurkat cells co-cultured with SW620 cells; assay: Jurkat cell death by propidium iodide staining after co-culture with SW620 cells; type: cell-based, human; design: dose or concentration left out as unconfirmed; conditions: XestC pre-incubation, 24 h co-culture
Protocol: as §1
Caspase activity and cell death were determined specifically in Jurkat cells by removing the medium containing the Jurkat cells into a fresh tube. […] Adherent SW620 cells remained attached to the culture plate after this rinse as determined by light microscopy. Jurkat cells were pelleted by centrifugation at 1000 g and cell death was determined by propidium iodide staining as described (12). […]

O=C(O)CN(CC(=O)O)c1ccccc1OCCOc1ccccc1N(CC(=O)O)CC(=O)O [BAPTA, 1,2-bis(o-aminophenoxy)ethane-N,N,N′,N′-tetraacetic acid]
Jurkat cell (lymphocyte) apoptosis induced by co-culture with SW620 cells [1]: dose-dependently inhibited Jurkat cell apoptosis

CC(=O)OCOC(=O)CN(CC(=O)OCOC(C)=O)c1ccccc1OCCOc1ccccc1N(CC(=O)OCOC(C)=O)CC(=O)OCOC(C)=O [BAPTA-AM, aminomethoxy ester form of BAPTA (1,2-bis(o-aminophenoxy)ethane-N,N,N′,N′-tetraacetic acid]
caspase-3 activation in Jurkat cells ([1]; 100 and 500 nM BAPTA-AM pre-loaded 30 min, p<0.05 vs no pre-treatment): Significant attenuation of caspase-3 activation

C1CCC[C@H]2CCCN3CC[C@@H](CCCCCC[C@@H]4CCCN5CC[C@@H](CC1)O[C@@H]45)O[C@@H]23 [XestC, Xestospongin C]
caspase-3 activation in Jurkat cells ([1]; XestC 1 to 20 micromolar, pre-incubated and kept in medium): inhibited caspase-3 activation
Jurkat cell (lymphocyte) apoptosis induced by co-culture with SW620 cells [1]: dose-dependently inhibited Jurkat cell apoptosis
Jurkat cell death induced by co-culture with SW620 cells [2]: potently blocked Jurkat cell death
